Measured values: ChEMBL document CHEMBL3102739, “Synthesis and antiproliferative activity of conformationally restricted 1,2,3-triazole analogues of combretastatins in the sea urchin embryo model and against human cancer cell lines” (Bioorg Med Chem, 2014)

Legend:
[1] = Growth inhibition of human EKVX cells after 48 hrs by SRB assay; type: functional
M14 = assay: Growth inhibition of human M14 cells after 48 hrs by SRB assay; type: functional; conditions: M14, 48 h
ACHN = assay: Growth inhibition of human ACHN cells after 48 hrs by SRB assay; type: functional
KM12 = assay: Growth inhibition of human KM12 cells after 48 hrs by SRB assay; type: functional; conditions: KM12, 48 h
RPMI-8226 = assay: Growth inhibition of human RPMI8226 cells after 48 hrs by SRB assay; type: functional; conditions: RPMI-8226, 48 h
MDA-MB-468 = assay: Growth inhibition of human MDA-MB-468 cells after 48 hrs by SRB assay; type: functional; conditions: MDA-MB-468, 48 h
SF-295 = assay: Growth inhibition of human SF295 cells after 48 hrs by SRB assay; type: functional; conditions: SF-295, 48 h
MOLT-4 = assay: Growth inhibition of human MOLT4 cells after 48 hrs by SRB assay; type: functional; conditions: MOLT-4, 48 h
NCI-H226 = assay: Growth inhibition of human NCI-H226 cells after 48 hrs by SRB assay; type: functional; conditions: NCI-H226, 48 h
Paracentrotus lividus = assay: Antimitotic activity against sea urchin embryo free-swimming blastula model assessed as embryo spinning compound treated at 8 to 10 hrs post-fertilization measured after 0.25 to 20 hrs; type: functional, Blastula stage
NCI-H322M = assay: Growth inhibition of human NCI-H322M cells after 48 hrs by SRB assay; type: functional
NCI-H522 = assay: Growth inhibition of human NCI-H522 cells after 48 hrs by SRB assay; type: functional; conditions: NCI-H522, 48 h
HT-29 = assay: Growth inhibition of human HT-29 cells after 48 hrs by SRB assay; type: functional; conditions: HT-29, 48 h
[2] = Growth inhibition of human RXF393 cells after 48 hrs by SRB assay; type: functional; conditions: RXF 393, 48 h
SK-MEL-28 = assay: Growth inhibition of human SK-MEL-28 cells after 48 hrs by SRB assay; type: functional; conditions: SK-MEL-28, 48 h
Malme-3M = assay: Growth inhibition of human MALME-3M cells after 48 hrs by SRB assay; type: functional

Row | Structure (SMILES) | GI50 [1] [µM] | GI50 (M14) [µM] | GI50 (ACHN) [µM] | GI50 (KM12) [µM] | GI50 (RPMI-8226) [µM] | GI50 (MDA-MB-468) [µM] | GI50 (SF-295) [µM] | GI50 (MOLT-4) [µM] | GI50 (NCI-H226) [µM] | EC (Paracentrotus lividus) [µM] | GI50 (NCI-H322M) [µM] | GI50 (NCI-H522) [µM] | GI50 (HT-29) [µM] | GI50 [2] [µM] | GI50 (SK-MEL-28) [µM] | GI50 (Malme-3M) [µM]
1 | COc1ccc(-c2nn[nH]c2-c2cc(OC)c(OC)c(OC)c2)cc1 | < 0.01 | < 0.01 | 0.015 | < 0.01 | < 0.01 | < 0.01 | < 0.01 | 0.012 | 0.051 | 0.1 | < 0.01 | < 0.01 | < 0.01 | < 0.01 |  | 
2 | COc1ccc(-c2nn[nH]c2-c2cc(OC)c3c(c2OC)OCO3)cc1 | 2.79 | 0.341 | 6.79 | 0.412 | 0.816 | 0.218 | 0.356 | 0.529 | 15.2 | >5 | 2.89 | 0.301 | 0.376 | 0.657 | 1.78 | 0.766
